In experiment [1] the target is T1, Integrin alpha-IIb/beta-3 (Homo sapiens, UniProt P05106+P08514). Kind of experiment: Inhibition of Platelet glycoprotein IIb/Platelet glycoprotein IIIa binding in unactivated human platelets.
Target sequence in this assay (P05106 27-788 limits assumed): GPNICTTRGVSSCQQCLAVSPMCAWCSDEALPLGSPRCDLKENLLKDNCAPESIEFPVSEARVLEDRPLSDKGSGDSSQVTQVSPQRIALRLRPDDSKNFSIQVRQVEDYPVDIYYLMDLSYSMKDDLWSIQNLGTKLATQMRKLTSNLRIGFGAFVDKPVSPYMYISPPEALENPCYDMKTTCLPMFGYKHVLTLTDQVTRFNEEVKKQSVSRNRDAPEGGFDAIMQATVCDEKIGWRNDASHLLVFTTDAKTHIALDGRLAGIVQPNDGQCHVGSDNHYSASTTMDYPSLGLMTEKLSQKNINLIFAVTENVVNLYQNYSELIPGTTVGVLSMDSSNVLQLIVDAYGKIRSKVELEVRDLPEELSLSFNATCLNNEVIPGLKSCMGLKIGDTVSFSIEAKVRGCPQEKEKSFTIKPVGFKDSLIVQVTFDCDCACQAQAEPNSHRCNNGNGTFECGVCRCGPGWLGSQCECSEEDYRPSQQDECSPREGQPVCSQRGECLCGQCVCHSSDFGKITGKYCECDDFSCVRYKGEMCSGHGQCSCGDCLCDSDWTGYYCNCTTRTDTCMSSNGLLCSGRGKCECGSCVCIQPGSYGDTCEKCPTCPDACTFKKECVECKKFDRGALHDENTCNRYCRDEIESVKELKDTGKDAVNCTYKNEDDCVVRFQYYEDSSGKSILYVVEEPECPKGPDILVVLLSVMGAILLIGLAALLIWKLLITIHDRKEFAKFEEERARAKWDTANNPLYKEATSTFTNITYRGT
Target sequence in this assay (P08514 32-887 limits assumed): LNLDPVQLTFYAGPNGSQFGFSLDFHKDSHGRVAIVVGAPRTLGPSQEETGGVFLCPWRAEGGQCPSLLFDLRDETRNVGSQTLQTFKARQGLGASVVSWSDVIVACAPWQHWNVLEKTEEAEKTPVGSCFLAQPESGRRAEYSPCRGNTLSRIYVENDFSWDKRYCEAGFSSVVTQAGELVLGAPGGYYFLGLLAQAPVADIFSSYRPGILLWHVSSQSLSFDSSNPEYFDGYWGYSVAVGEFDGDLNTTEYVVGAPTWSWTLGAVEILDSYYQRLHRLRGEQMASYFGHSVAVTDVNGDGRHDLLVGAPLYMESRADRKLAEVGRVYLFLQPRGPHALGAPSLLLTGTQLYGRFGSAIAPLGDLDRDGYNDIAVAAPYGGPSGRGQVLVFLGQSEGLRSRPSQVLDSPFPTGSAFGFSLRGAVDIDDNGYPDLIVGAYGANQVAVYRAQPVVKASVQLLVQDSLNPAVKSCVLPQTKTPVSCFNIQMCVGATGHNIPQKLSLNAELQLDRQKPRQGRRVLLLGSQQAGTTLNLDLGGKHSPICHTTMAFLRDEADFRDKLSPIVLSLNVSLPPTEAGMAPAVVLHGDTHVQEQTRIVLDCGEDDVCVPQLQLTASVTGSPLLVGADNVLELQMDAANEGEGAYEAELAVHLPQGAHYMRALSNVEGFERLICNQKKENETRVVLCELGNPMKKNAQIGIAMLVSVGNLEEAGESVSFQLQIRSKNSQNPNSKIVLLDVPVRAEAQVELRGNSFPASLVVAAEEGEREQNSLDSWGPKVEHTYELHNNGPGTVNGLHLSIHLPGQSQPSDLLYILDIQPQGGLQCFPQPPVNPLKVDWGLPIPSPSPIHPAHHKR
Target sequence in this assay (P08514 891-1039 limits assumed): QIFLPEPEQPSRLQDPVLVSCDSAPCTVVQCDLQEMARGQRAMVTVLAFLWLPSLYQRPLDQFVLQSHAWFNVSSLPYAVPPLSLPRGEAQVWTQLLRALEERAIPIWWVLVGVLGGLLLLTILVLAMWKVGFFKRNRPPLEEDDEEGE
In experiment [2] the target is T1, Integrin alpha-IIb/beta-3. Kind of experiment: Inhibition of GPIIb/IIIa binding in activated human platelets. The class given is functional.
Target sequence in this assay (P05106 27-788 limits assumed): as the sequence (P05106 27-788 limits assumed) above
Target sequence in this assay (P08514 32-887 limits assumed): as the sequence (P08514 32-887 limits assumed) above
Target sequence in this assay (P08514 891-1039 limits assumed): as the sequence (P08514 891-1039 limits assumed) above
Experiment [3] concerns the target T1, Integrin alpha-IIb/beta-3. Kind of experiment: Relative binding to unactivated/activated platelets.

The structures appear in SMILES notation.

This note sets out measurements from ChEMBL document CHEMBL1133407, “Ring constrained analogues of beta-alanine-containing GPIIb/IIIa receptor antagonists” (Bioorg Med Chem Lett, 2000).

As for `N=C(N)c1ccc(C2=NOC(CC(=O)N3CCCCC3CC(=O)O)C2)cc1` (single isomer, unassigned; isomer B) [listing 1 of 2 here], the IC50 in experiment [1] was found to be 5800 nM; in experiment [2], 302 nM. On to `N=C(N)c1ccc(C2=NOC(CC(=O)N3CCCCC3CC(=O)O)C2)cc1` (single isomer, unassigned; isomer B) [listing 2 of 2 here], for which the Ratio in experiment [3] was determined as 19. `N=C(N)c1ccc(C2=NOC(CC(=O)N3CCCCC3CC(=O)O)C2)cc1` (single isomer, unassigned; isomer C) [listing 1 of 2 here]: the IC50 in experiment [1] was 64 nM; in experiment [2], 2 nM. In the case of `N=C(N)c1ccc(C2=NOC(CC(=O)N3CCCCC3CC(=O)O)C2)cc1` (single isomer, unassigned; isomer D), the concentration for half-maximal inhibition (IC50) in experiment [1] is greater than 5000 nM.

For `N=C(N)c1ccc(C2=NOC(CC(=O)NCCC(=O)O)C2)cc1` (stereo not given), the half-inhibitory concentration (IC50) was 112 nM in experiment [1] and 4 nM in experiment [2]. The Ratio in experiment [3] was found to be 28.

In the case of `N=C(N)c1ccc(C2=NOC(CC(=O)N3CCCCC3CC(=O)O)C2)cc1` (single isomer, unassigned; isomer C) [listing 2 of 2 here], the Ratio in experiment [3] amounted to 32.

By IC50 is commonly meant the concentration at which inhibition is half-maximal.
